42 molecules from the NIST ThermoML archive (doi:10.1016/j.jct.2015.02.023) can be followed below.

The data set in a line: activity coefficient (dimensionless); of the first substance listed, at infinite dilution; xn = mol fraction of the nth substance listed. The note with it: 101.33 kPa, Liquid, Chromatography, x1 = 0.

Numbers after ± are expanded uncertainties.

For the molecule `Cc1ccccc1` [toluene] + CO[PH](=O)[O-].Cn1cc[n+](C)c1, the activity coefficient (313.15 K) came to 11.5 ± 0.78, the activity coefficient (323.15 K) is 11.4 ± 0.78, the activity coefficient (333.15 K) stood at 11.3 ± 0.77 and the activity coefficient (343.15 K) came to 11.2 ± 0.77.

Take `c1ccsc1` [thiophene] + CO[PH](=O)[O-].Cn1cc[n+](C)c1: the activity coefficient is, setting by setting: (313.15 K) 2.47 ± 0.17; (323.15 K) 2.54 ± 0.17; (333.15 K) 2.58 ± 0.18; (343.15 K) 2.6 ± 0.18.

Consider `Cc1ccc(C)cc1` [1,4-dimethylbenzene] + CO[PH](=O)[O-].Cn1cc[n+](C)c1, for which the activity coefficient by setting is: (313.15 K) 23.4 ± 1.6; (323.15 K) 23.4 ± 1.6; (333.15 K) 22.7 ± 1.6; (343.15 K) 22 ± 1.5.

For the molecule `C#CCCCC` [1-hexyne] + CO[PH](=O)[O-].Cn1cc[n+](C)c1, the activity coefficient (313.15 K) worked out at 12.7 ± 0.87, the activity coefficient (323.15 K) is 13 ± 0.88, the activity coefficient (333.15 K) worked out at 13.4 ± 0.91 and the activity coefficient (343.15 K) amounted to 13.7 ± 0.93.

As for `CCCCCCCCCCCCCC` [tetradecane] + CO[PH](=O)[O-].Cn1cc[n+](C)c1, the activity coefficient stood at 3560 ± 250 (313.15 K), 3220 ± 220 (323.15 K), 2980 ± 210 (333.15 K) and 2890 ± 200 (343.15 K).

With `CCC(=O)CC` [pentan-3-one] + CCn1cc[n+](C)c1.CO[PH](=O)[O-], the activity coefficient (313.15 K) worked out at 5.77 ± 0.39, the activity coefficient (333.15 K) is 5.88 ± 0.4, the activity coefficient (353.15 K) came to 6 ± 0.41 and the activity coefficient (373.15 K) was 6.17 ± 0.42.

With `CCCC(C)=O` [pentan-2-one] + CO[PH](=O)[O-].Cn1cc[n+](C)c1, the activity coefficient (313.15 K) is 10.6 ± 0.7, the activity coefficient (323.15 K) is 10.5 ± 0.7, the activity coefficient (333.15 K) was 10.3 ± 0.7 and the activity coefficient (343.15 K) amounted to 10.1 ± 0.7.

Turning to `CCCCCCCCCCC` [undecane] + CO[PH](=O)[O-].Cn1cc[n+](C)c1, the activity coefficient is 1530 ± 110 (313.15 K), 1470 ± 100 (323.15 K), 1400 ± 97 (333.15 K) and 1330 ± 92 (343.15 K).

Take `CCC(=O)CC` [pentan-3-one] + CO[PH](=O)[O-].Cn1cc[n+](C)c1: the activity coefficient was 10.2 ± 0.7 (313.15 K), 10.1 ± 0.7 (323.15 K), 10.1 ± 0.7 (333.15 K) and 10 ± 0.7 (343.15 K).

With `C#CCCCCC` [1-heptyne] + CCn1cc[n+](C)c1.CO[PH](=O)[O-], the activity coefficient by setting is: (313.15 K) 10.2 ± 0.7; (333.15 K) 11.1 ± 0.8; (353.15 K) 11.8 ± 0.8; (373.15 K) 12 ± 0.8.

As for `CCCO` [propan-1-ol] + CO[PH](=O)[O-].Cn1cc[n+](C)c1, the activity coefficient (343.15 K) worked out at 0.25 ± 0.03.

For `c1ccccc1` [benzene] + CCn1cc[n+](C)c1.CO[PH](=O)[O-], the activity coefficient reads like this: (313.15 K) 3.44 ± 0.23; (333.15 K) 3.52 ± 0.24; (353.15 K) 3.61 ± 0.25; (373.15 K) 3.75 ± 0.26.

On to `CCCC(C)=O` [pentan-2-one] + CCn1cc[n+](C)c1.CO[PH](=O)[O-], for which the activity coefficient (313.15 K) came out at 6.12 ± 0.42, the activity coefficient (333.15 K) turned out to be 6.13 ± 0.42, the activity coefficient (353.15 K) came to 6.15 ± 0.42 and the activity coefficient (373.15 K) was 6.18 ± 0.42.

Take `c1ccsc1` [thiophene] + CCn1cc[n+](C)c1.CO[PH](=O)[O-]: the activity coefficient by setting is: (313.15 K) 1.99 ± 0.14; (333.15 K) 2.16 ± 0.15; (353.15 K) 2.5 ± 0.17; (373.15 K) 2.64 ± 0.18.

`C#CCCCC` [1-hexyne] + CCn1cc[n+](C)c1.CO[PH](=O)[O-]: the activity coefficient stood at 6.24 ± 0.43 (313.15 K), 6.73 ± 0.46 (333.15 K), 7.14 ± 0.49 (353.15 K) and 7.56 ± 0.52 (373.15 K).

Take `CCCCCCCCCCCC` [dodecane] + CCn1cc[n+](C)c1.CO[PH](=O)[O-]: the activity coefficient was found to be 1740 ± 120 (313.15 K), 1540 ± 110 (333.15 K), 1300 ± 90 (353.15 K) and 915 ± 63 (373.15 K).

For the molecule `CCCCCCCCCCCC` [dodecane] + CO[PH](=O)[O-].Cn1cc[n+](C)c1, the activity coefficient was found to be 2350 ± 160 (313.15 K), 1920 ± 130 (323.15 K) and 1790 ± 120 (333.15 K).

For the molecule `c1ccncc1` [pyridine] + CO[PH](=O)[O-].Cn1cc[n+](C)c1, the activity coefficient came out at 2.15 ± 0.15 (313.15 K), 2.16 ± 0.15 (323.15 K), 2.17 ± 0.15 (333.15 K) and 2.19 ± 0.15 (343.15 K).

`ClCCl` [dichloromethane] + CCn1cc[n+](C)c1.CO[PH](=O)[O-]: the activity coefficient amounted to 0.502 ± 0.038 (313.15 K), 0.642 ± 0.044 (333.15 K) and 0.798 ± 0.052 (353.15 K).

As to `CCCCCCCCCC` [decane] + CCn1cc[n+](C)c1.CO[PH](=O)[O-], the activity coefficient is, setting by setting: (313.15 K) 882 ± 61; (333.15 K) 704 ± 48; (353.15 K) 582 ± 40.

For the molecule `CC1CCCCC1` [methylcyclohexane] + CCn1cc[n+](C)c1.CO[PH](=O)[O-], the activity coefficient was 211 ± 15 (313.15 K) and 70.8 ± 4.9 (333.15 K).

Take `Cc1ccccc1` [toluene] + CCn1cc[n+](C)c1.CO[PH](=O)[O-]: the activity coefficient came to 6.53 ± 0.45 (313.15 K), 6.63 ± 0.45 (333.15 K), 6.82 ± 0.46 (353.15 K) and 7.16 ± 0.49 (373.15 K).

As for `CCN(CC)CC` [triethylamine] + CO[PH](=O)[O-].Cn1cc[n+](C)c1, the activity coefficient runs as follows: (313.15 K) 9.04 ± 0.62; (323.15 K) 12.7 ± 0.9.

For the molecule `CC(C)O` [propan-2-ol] + CCn1cc[n+](C)c1.CO[PH](=O)[O-], the activity coefficient (333.15 K) worked out at 0.261 ± 0.03, the activity coefficient (353.15 K) worked out at 0.294 ± 0.031 and the activity coefficient (373.15 K) came to 0.314 ± 0.031.

As to `CCCCCCCCCCCCC` [tridecane] + CCn1cc[n+](C)c1.CO[PH](=O)[O-], the activity coefficient (313.15 K) came to 2560 ± 180, the activity coefficient (333.15 K) worked out at 2130 ± 150, the activity coefficient (353.15 K) stood at 1850 ± 130 and the activity coefficient (373.15 K) worked out at 1300 ± 89.

Regarding `ClC(Cl)(Cl)Cl` [tetrachloromethane] + CO[PH](=O)[O-].Cn1cc[n+](C)c1, the activity coefficient runs as follows: (313.15 K) 6.57 ± 0.45; (323.15 K) 6.83 ± 0.47; (333.15 K) 7.03 ± 0.48.

For `C=O` [methanal] + CCn1cc[n+](C)c1.CO[PH](=O)[O-], the activity coefficient (313.15 K) is 0.059, the activity coefficient (333.15 K) turned out to be 0.084 ± 0.03, the activity coefficient (353.15 K) is 0.115 ± 0.03 and the activity coefficient (373.15 K) is 0.151 ± 0.029.

On to `CCC[N+](=O)[O-]` [1-nitropropane] + CO[PH](=O)[O-].Cn1cc[n+](C)c1, for which the activity coefficient by setting is: (313.15 K) 3.41 ± 0.23; (323.15 K) 3.35 ± 0.23; (333.15 K) 3.29 ± 0.22; (343.15 K) 3.29 ± 0.22.

Turning to `Cc1ccc(C)cc1` [1,4-dimethylbenzene] + CCn1cc[n+](C)c1.CO[PH](=O)[O-], the activity coefficient is, setting by setting: (313.15 K) 16.9 ± 1.2; (333.15 K) 18 ± 1.2; (353.15 K) 19.3 ± 1.3; (373.15 K) 21.9 ± 1.5.

For `CCCCCCCC` [octane] + CCn1cc[n+](C)c1.CO[PH](=O)[O-], for the setting “313.15 K”, the activity coefficient was 461 ± 32.

Consider `CC#N` [acetonitrile] + CCn1cc[n+](C)c1.CO[PH](=O)[O-], for which the activity coefficient (313.15 K) was determined as 1.08 ± 0.07, the activity coefficient (333.15 K) is 1.11 ± 0.07, the activity coefficient (353.15 K) came to 1.19 ± 0.08 and the activity coefficient (373.15 K) worked out at 1.25 ± 0.08.

For the molecule `C1CCCCCC1` [cycloheptane] + CO[PH](=O)[O-].Cn1cc[n+](C)c1, the activity coefficient (313.15 K) came out at 250 ± 17.

As for `CCC(C)=O` [butanone] + CCn1cc[n+](C)c1.CO[PH](=O)[O-], the activity coefficient (313.15 K) worked out at 3.49 ± 0.24, the activity coefficient (333.15 K) turned out to be 3 ± 0.2, the activity coefficient (353.15 K) is 2.56 ± 0.17 and the activity coefficient (373.15 K) stood at 2.37 ± 0.16.

In the case of `CCCCCCCCC` [nonane] + CO[PH](=O)[O-].Cn1cc[n+](C)c1, the activity coefficient (313.15 K) amounted to 1070 ± 74 and the activity coefficient (323.15 K) was determined as 1050 ± 72.

Consider `CCC[N+](=O)[O-]` [1-nitropropane] + CCn1cc[n+](C)c1.CO[PH](=O)[O-], for which the activity coefficient reads like this: (313.15 K) 2.68 ± 0.18; (333.15 K) 2.69 ± 0.18; (353.15 K) 2.75 ± 0.19; (373.15 K) 2.8 ± 0.19.

With `CO` [methanol] + CO[PH](=O)[O-].Cn1cc[n+](C)c1, the activity coefficient (343.15 K) came to 0.07 ± 0.03.

Take `C[N+](=O)[O-]` [nitromethane] + CO[PH](=O)[O-].Cn1cc[n+](C)c1: the activity coefficient amounted to 0.8 ± 0.05 (313.15 K), 0.81 ± 0.05 (323.15 K), 0.82 ± 0.05 (333.15 K) and 0.83 ± 0.05 (343.15 K).

In the case of `C1CCCCC1` [cyclohexane] + CO[PH](=O)[O-].Cn1cc[n+](C)c1, where the note is “313.15 K”, the activity coefficient came to 129 ± 9.

Regarding `CCOCC` [diethyl ether] + CCn1cc[n+](C)c1.CO[PH](=O)[O-], the activity coefficient runs as follows: (313.15 K) 1.99 ± 0.14; (333.15 K) 2.43 ± 0.17; (353.15 K) 3.5 ± 0.24; (373.15 K) 4.6 ± 0.31.

Take `CCCCCCCCC` [nonane] + CCn1cc[n+](C)c1.CO[PH](=O)[O-]: the activity coefficient came to 617 ± 42 (313.15 K) and 485 ± 33 (333.15 K).

On to `C[N+](=O)[O-]` [nitromethane] + CCn1cc[n+](C)c1.CO[PH](=O)[O-], for which the activity coefficient (313.15 K) was 0.75 ± 0.049, the activity coefficient (333.15 K) stood at 0.787 ± 0.051, the activity coefficient (353.15 K) was determined as 0.831 ± 0.054 and the activity coefficient (373.15 K) was 0.873 ± 0.056.

Turning to `C#CCCCCC` [1-heptyne] + CO[PH](=O)[O-].Cn1cc[n+](C)c1, the activity coefficient (313.15 K) stood at 22 ± 1.5, the activity coefficient (323.15 K) turned out to be 23.5 ± 1.6, the activity coefficient (333.15 K) is 23.5 ± 1.6 and the activity coefficient (343.15 K) turned out to be 24.9 ± 1.7.
